Experiment [1] deals with bacteria (including S. aureus, E. coli, P. aeruginosa, and C. maltaromaticum) and fungi (including, C. albicans, A. niger, and Penicillium sp.). Kind of experiment: Biocide efficacy: concentrations (CFU per milliliter) of contaminants over time on plates treated with biocide. The experiment is classed as cell-based. Particulars: for decrease or elimination of the bacteria and/or fungi contaminants: plates. The source says:
FIG. 3 is a graphical plot showing the concentrations (measured in CFU per milliliter) of various contaminants (y-axis), such as, by way of example only, bacteria and fungi, over a period of time in weeks (x-axis) on plates treated with a concentration of about 20 ppm hexahydro 1,3,5-tris(2-hydroxy ethyl)-S-triazine (“Onyxide200”) biocide in accordance with the presently disclosed and/or claimed inventive concept(s).
FIG. 4A is a graphical plot showing the concentrations (measured in CFU per milliliter) of various contaminants (y-axis), such as, by way of example only, bacteria and fungi, over a period of time in weeks (x-axis) on plates treated with a concentration of about 5 ppm of 5-chloro-2-methylisothiazol-3(2H)-one (“Cl-MlT”) biocide in accordance with the presently disclosed and/or claimed inventive concept(s).
FIG. 5A is a graphical plot showing the concentrations (measured in CFU per milliliter) of various contaminants (y-axis), such as, by way of example only, bacteria and fungi, over a period of time in weeks (x-axis) on plates treated with a combination of concentrations of about 20 ppm of Onyxide200 biocide and about 4 ppm of Cl-MlT biocide in accordance with the presently disclosed and/or claimed inventive concept(s).
Referring now to FIG. 3, shown therein is a graphical plot showing the concentrations (measured in CFU per milliliter) of various contaminants (y-axis), such as, by way of example only, bacteria (including S. aureus, E. coli, P. aeruginosa, and C. maltaromaticum) and fungi (including, C. albicans, A. niger, and Penicillium sp.) over a period of five weeks (x-axis) on plates treated with a concentration of about 20 ppm of the individual aqueous biocide Onyxide200 in accordance with the presently disclosed and/or claimed inventive concept(s). […]
Referring now to FIG. 5A, shown therein is a graphical plot showing the concentrations (measured in CFU per milliliter) of various contaminants (y-axis), such as, by way of example only, bacteria (including S. aureus, E. coli, P. aeruginosa, and C. maltaromaticum) and fungi (including, C. albicans, A. niger, and Penicillium sp.) over a period of six weeks (x-axis) on plates treated with a combined aqueous biocide formulation comprising concentrations of about 20 ppm of Onyxide200 biocide and about 4 ppm of Cl-MlT biocide in accordance with the presently disclosed and/or claimed inventive concept(s). […] This is synergistic effect allows for a significant increase in the formulation's efficacy for contaminant removal over the individual component biocides (Onyxide200 and Cl-MlT) which comprise the formulation.

Experiment [2] relates to creatinase enzyme of creatinine detection sensors. In words: Inactivation of the enzyme of creatinine detection sensors after exposure to biocide. The experiment is classed as biochemical. Particulars: individual biocide; creatinine detection sensor; 'in as little as'. The source says: Biocides are often used to preserve the at least one analyte detection sensor(s) of a sensor array present in a blood gas, electrolyte, and/or metabolite instrument. However, when such analyte detection sensor(s) is a creatinine detection sensor(s), these biocides inactivate some or all of the enzymes present on and/or in the creatinine sensor(s). In the context of creatinine sensors, such sensors rely on enzymes containing free sulfhydryl groups (—SH) for the proper and continuous functioning of the sensors. Such free sulfhydryl groups chemically react with certain species of biocide(s) (such as, Cl-MlT) that result in the inactivation of the creatinine sensor's(s′) enzymes, thereby resulting in decreased (or total loss) of functional utility and/or functional life of the creatinine sensor(s). Such inactivation can occur very rapidly. […]
Referring now to FIG. 4A, shown therein is a graphical plot showing the concentrations (measured in CFU per milliliter) of various contaminants (y-axis), such as, by way of example only, bacteria (including S. aureus, E. coli, P. aeruginosa, and C. maltaromaticum) and fungi (including, C. albicans, A. niger, and Penicillium sp.) over a period of six weeks (x-axis) on plates treated with a concentration of about 5 ppm of the individual aqueous biocide Cl-MlT in accordance with the presently disclosed and/or claimed inventive concept(s).

As for `OCCN1CN(CCO)CN(CCO)C1` [Onyxide200, hexahydro 1,3,5-tris(2-hydroxyethyl)-S-triazine], in experiment [1] (about 20 ppm individual aqueous biocide, five weeks, FIG. 3), the “decrease or elimination of the bacteria and/or fungi contaminants” value is “did not result in a substantial decrease or elimination of the bacteria and/or fungi contaminants”.

Take `Cn1sc(Cl)cc1=O` [Cl-MlT, 5-chloro-2-methylisothiazol-3(2H)-one]: in experiment [2], the “time after exposure at which inactivation of the enzyme occurs” value was 1 to 4 days. The “week of plating at which decrease and/or elimination was obtained for some contaminants” value in experiment [1] (about 1 ppm individual aqueous biocide, FIG. 4B) was above 6 week. The “decrease or elimination of the bacteria and/or fungi contaminants” value is given as “eventually resulted in a decrease or elimination of only some of the bacteria and/or fungi contaminants” in experiment [1] (about 1 ppm individual aqueous biocide, six weeks, FIG. 4B) and “eventually resulted in a decrease or elimination of the bacteria and/or fungi contaminants” in experiment [1] (about 5 ppm individual aqueous biocide, six weeks, FIG. 4A). In experiment [1] (about 5 ppm individual aqueous biocide, FIG. 4A), the “week after plating at which decrease and/or elimination was obtained for some contaminants” value stood at 5 week.

The values are drawn from patent US20250302043A1, “BIOCIDE FORMULATIONS FOR THE PRESERVATION OF ANALYTE DETECTION SENSOR(S) AND METHOD(S) OF USE AND THEREOF” (Siemens Healthcare Diagnostics Inc., priority 2019, published 2025).
